Where two headings read alike, the source gives them in different places. Starred links: 1 amine or outer side, 2 acyl side, 3 side chain; linkers in the order of their positions; H or OH if unused. Positions of bridges follow the written chain, without caps; N, C: chain ends. Non-standard residues stand in square brackets, D forms with d. Residues, ends and D or L forms follow the SMILES beside them. Groups on a side chain read outwards from the residue. *: point of attachment. PEG8 = NCCOCCOCCOCCOCCOCCOCCOCCOCCC(=O)O; Palmitoyl = CCCCCCCCCCCCCCCC(=O)*; hCys = N[C@@H](CCS)C(=O)O; X1 = O=C(CC[*:2])[*:1]

One data set addresses T1, hOXTR (Homo sapiens, UniProt P30559).
T1 construct: expressed in transfected cells; host or cells: CHO (hOTR NFAT bLac)
T1 sequence (P30559 1-389): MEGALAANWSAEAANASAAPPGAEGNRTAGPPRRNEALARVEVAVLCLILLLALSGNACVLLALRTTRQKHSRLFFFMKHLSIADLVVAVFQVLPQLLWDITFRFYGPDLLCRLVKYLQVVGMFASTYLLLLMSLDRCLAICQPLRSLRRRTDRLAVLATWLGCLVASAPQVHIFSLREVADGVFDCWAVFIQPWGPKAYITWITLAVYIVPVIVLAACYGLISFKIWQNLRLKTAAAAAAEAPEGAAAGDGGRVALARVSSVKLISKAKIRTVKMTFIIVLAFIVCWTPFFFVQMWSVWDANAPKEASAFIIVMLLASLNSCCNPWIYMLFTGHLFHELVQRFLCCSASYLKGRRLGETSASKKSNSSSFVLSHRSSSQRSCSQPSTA
As to the kind of experiment: Ca2+ flux fluorometric imaging plate reader assay at OXTR. The format is cell-based. The procedure:
In a typical experimental protocol, stably transfected Chinese hamster ovary (CHO) hOTR NFAT bLac cells were plated at a density of 10,000 cells/well in a 384-well plate in growth medium (Dulbecco's modified Eagle's medium+Glutamax (Thermo Fisher Scientific, Waltham, MA), 10% dialyzed fetal bovine serum). The next day calcium-sensitive, fluo-4 dye (Invitrogen, Carlsbad, CA) and probenecid (Invitrogen; 2.5 mM) was dissolved in 20 ml warm dye loading buffer (Hanks' balanced salt solution with calcium and magnesium, 20 mM Hepes, pH 7.4) and added to each well. Plates were incubated for 60-120 minutes in a 37° C. cell incubator to allow cells to uptake the dye. […] After dye-loading, the cell plates were placed on the fluorometric imaging plate reader. A total of […] of test compound was added to the […] of dye on the cells, and intracellular Ca^2+ was monitored for 90 seconds. Intracellular Ca^2+ concentrations were calculated as the maximum increase over basal levels. Responses were normalized to control responses. Data were analyzed by curve fitting.

In the next data set the target is T2, human V1a receptor (Homo sapiens, UniProt P37288).
T2 construct: expressed in transfected cells; host or cells: CHO
As to the kind of experiment: Cytosolic Ca2+ mobilization agonist assay at human V1a receptor. It counts as cell-based. To be noted: stably transfected CHO cells; read-out: hV1aR, EC50. Here is the method: The cells were suspended in DMEM buffer (Invitrogen, Carlsbad, CA) complemented with 0.1% FCSd, then distributed in microplates at a density of 4.5×10^4 cells/well. The fluorescent probe (Fluo4 Direct, Invitrogen, Carlsbad, CA) mixed with probenicid in HBSS buffer (Invitrogen, Carlsbad, CA) complemented with 20 mM HEPES (Invitrogen, Carlsbad, CA) (pH 7.4) was then added into each well and equilibrated with the cells for 60 min at 37° C. then 15 min at 22° C. The assay plates were positioned in a microplate reader (CellLux, PerkinElmer) followed by the addition of the test compound ASK2131, reference agonist or HBSS buffer (basal control), and the measurements of changes in fluorescence intensity which varies proportionally to the free cytosolic Ca^2+ ion concentration. For stimulated control measurements, AVP at 1 μM was added in separate assay wells. The results were expressed as a percent of the control response to 1 μM AVP. The standard reference agonist was AVP, which was tested in each experiment at several concentrations to generate a concentration-response curve from which its EC50 value was calculated.
A general note: Calcium assays in cells follow changes in intracellular calcium, usually with a dye or a luminescent sensor.

In the next data set the target is T3, human V2 receptor (Homo sapiens, UniProt P30518).
T3 construct: expressed in transfected cells; host or cells: CHO
As to the kind of experiment: cAMP production (HTRF) agonist assay at human V2 receptor. The format is cell-based. To be noted: stably transfected CHO cells, read-out: hV2R, EC50. Here is the method: In Vitro Functional Assay measuring V2R Evaluation of the agonist activity of ASK2131 at the human V2 receptor expressed in stably transfected CHO cells was conducted by measuring its effects on cAMP production using the HTRF detection method. The cells were suspended in HBSS buffer (Invitrogen, Carsbad, CA) complemented with 20 mM HEPES (pH 7.4), 0.010% BSA and 500 μM IBMX, then distributed in microplates at a density of […] cells/well and incubated for 30 min at room temperature in the absence (control) or presence of the test compound or the reference agonist.
For stimulated control measurement, separate assay wells contained 1 nM AVP. Following incubation, the cells were lysed, and the fluorescence acceptor (D2-labeled cAMP) and fluorescence donor (anti-cAMP antibody labeled with europium cryptate) were added. After 60 min at room temperature, the fluorescence transfer was measured at γ ex=337 nm and γ em=620 and 665 nm using a microplate reader (Envision, Perkin Elmer). The cAMP concentration was determined by dividing the signal measured at 665 nm by that measured at 620 nm (ratio).
The results were expressed as a percent of the control response to 1 nM AVP. The standard reference agonist was AVP, which was tested in each experiment at several concentrations to generate a concentration-response curve from which its EC50 value was calculated.
On the technique in general: Changes in cAMP serve as a functional read-out for many G protein-coupled receptors.

Data set [1] can be described thus: Pharmacokinetics, iv, rat. It counts as in vivo.
Experimental: Whole blood samples were immediately centrifuged at 4° C.; separated plasma (~100 μL) was pipetted into micro centrifuge tubes, flash frozen on dry ice, and stored at −80° C. Quantitative analysis plasma samples were performed by Alturas Analytics (Moscow, ID, USA) via peptide extraction from acidified plasma with acetonitrile followed by LC-MS/MS analysis.
Data set [2] is described as follows: 22-day long-term study in DIO rats (body weight, food and water intake). It counts as in vivo, male Sprague Dawley rats. To be noted: in words. From the text: For studies utilizing a DIO rat model, male Sprague Dawley rats (CD-IGS rats, strain 001; approximately 4 weeks of age; 51-75 g) purchased from Charles River Laboratories (Wilmington, MA, USA). These rats were fed a diet of 60% calories from fat (Formula: D12492; Research Diets, Inc., New Brunswick, NJ, USA; 5.21 kcal/g) for 4.5 to 6 months prior to the start of the study to induce obesity. For studies utilizing lean rats, male Sprague Dawley rats (CD-IGS rats, strain 001; 226-250 g) purchased from Charles River Laboratories (Wilmington, MA, USA). All rats had ad libitum access to food and water and were kept on a 12 h light/12 h dark cycle. Animals were individually housed in a temperature (22±1° C.) and humidity (57±4%) controlled room. All body weight measurements were taken just prior to the start of the dark cycle.
(§1) Male Sprague Dawley rats were fed 60% HF diet (D12492; Research Diets, Inc; New Brunswick, NJ; 5.21 kcal/g) for 16 weeks prior to the start of the study. Rats were then singly house in BioDAQ cages (Research Diets, Inc.; New Brunswick, NJ) and allowed to acclimate to their new environment for 10 days. Baseline measures of body weight, food intake and water intake were taken for one week to balance the groups and create feeding pairs. Each group (n=6 animals/group) averaged 714.47±81.6 g at baseline (Table 3).
(§2) Effects of ASK2131 were compared to a vehicle-treated group, OXT-treated group, as well as a pair-fed control group. Three days of baseline measures were taken before subcutaneous treatment administration began on day 4 of the study. Assessments were made to body weight, food intake and water intake. ASK2131 was administered at 50 nmol/kg throughout the entire study period. […] OXT-treated animals were started at 50 nmol/kg dose for two days, followed by 150 nmol/kg, then 300 nmol/kg, until ending at 600 nmol/kg for the remainder of the study.

The nature of data set [3]: Blood parameters after 22-day treatment of DIO rats. It counts as in vivo, male Sprague Dawley rats.
Excerpt: as §1, §2
Cardiac puncture was used to collect blood for analysis 2 h post final injection. Commercially available enzyme-linked immunosorbent assays (ELISA) were used for quantitative assessment of leptin (cat. #EZRL-83K; MilliporeSigma, Burlington, MA, USA), insulin (cat. #EZRMI-13K; MilliporeSigma, Burlington, MA, USA), and adiponectin (cat. #EZRAPD-62K MilliporeSigma, Burlington, MA, USA). Serum samples were diluted 1:500 for the adiponectin ELISA using the sample diluent provided with the kit. All ELISAs were completed following the manufacturers recommendations. Levels of glucose, cholesterol (total, HDL, and calculated LDL), triglycerides, ALT, and AST were determined in the serum on a Modular P chemistry analyzer (Roche Diagnostics, Risch-Rotkreuz, Switzerland) by the University of Washington Nutrition and Obesity Research Center's Analytic Core (Seattle, WA, USA).

Where [4] appears, read: serum 2 h post final injection, 22 days sc, mean ± SEM, OXT n=4.

T3 sequence (P30518 whole entry): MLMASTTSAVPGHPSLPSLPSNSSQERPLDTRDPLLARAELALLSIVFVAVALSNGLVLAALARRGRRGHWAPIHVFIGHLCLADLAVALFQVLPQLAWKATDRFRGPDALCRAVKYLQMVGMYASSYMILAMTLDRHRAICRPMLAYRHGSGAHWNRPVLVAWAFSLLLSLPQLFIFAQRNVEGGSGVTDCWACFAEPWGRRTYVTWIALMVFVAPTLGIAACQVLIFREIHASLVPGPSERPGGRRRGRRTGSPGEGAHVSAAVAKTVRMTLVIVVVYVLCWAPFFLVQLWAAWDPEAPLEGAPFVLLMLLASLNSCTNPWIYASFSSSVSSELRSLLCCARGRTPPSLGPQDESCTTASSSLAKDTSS
T2 sequence (P37288 whole entry): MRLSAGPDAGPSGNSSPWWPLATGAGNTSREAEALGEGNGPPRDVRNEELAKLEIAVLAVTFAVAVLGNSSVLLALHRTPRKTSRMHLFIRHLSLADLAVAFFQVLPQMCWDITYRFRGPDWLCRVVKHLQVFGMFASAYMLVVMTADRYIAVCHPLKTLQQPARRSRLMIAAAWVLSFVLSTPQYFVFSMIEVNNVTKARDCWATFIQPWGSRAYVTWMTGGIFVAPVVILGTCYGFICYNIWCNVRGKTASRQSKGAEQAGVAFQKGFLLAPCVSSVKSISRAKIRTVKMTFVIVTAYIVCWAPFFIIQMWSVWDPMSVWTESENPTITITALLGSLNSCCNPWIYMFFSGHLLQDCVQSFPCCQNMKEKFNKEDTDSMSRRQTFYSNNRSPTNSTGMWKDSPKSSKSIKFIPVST

`CCCCCCCCCCCCCCCC(=O)NCCOCCOCCOCCOCCOCCOCCOCCOCCC(=O)NCCCC[C@H](NC(=O)CNC(=O)[C@@H]1CCSCCC(=O)N[C@@H](Cc2ccc(O)cc2)C(=O)N[C@@H]([C@@H](C)CC)C(=O)N[C@@H](CCC(N)=O)C(=O)N[C@@H](CC(N)=O)C(=O)N1)C(=O)NCC(N)=O` [ASK2131] (YIQN[hCys]GK([PEG8-Palmitoyl])G-NH2; linker N-5 via X1): the figures for the EC50 at hOXTR, on human V1a receptor and at human V2 receptor were 1.1 nM, over 1000 nM and 0.36 nM, respectively. In addition, on hOXTR (ratio of EC50 values), the “Ratio OXTR/V2R/” value is recorded as 3.06. In addition, in data set [1], the T1/2 amounted to 2.30 h. For the same molecule, the Tmax (commonly the time from dosing to the highest level) in data set [1] was 4.00 h; in data set [1] (plasma, read-out: Tmax), 4 h. In addition, the “free Cmax” value in data set [1] (4 hours post-dose) is reported as 0.5 nM. In addition, the half-life (as a rule, how long it takes for the measured level to halve) in data set [1] (plasma) is 138 min. Moreover, the clearance in data set [1] (plasma, read-out: CLplasma) turned out to be 1.2 mL/min/kg. The Vd – broadly, a proportionality between amount in the body and measured concentration, not a real space – in data set [1] (plasma, read-out: Vd, steady-state volume of distribution) amounted to 0.8 L/kg. In data set [1] (total plasma concentration, 4 hours post-dose), the peak level (Cmax at 4 h) was 276 nM. The “adverse effects caused by the activation of V2R” value in data set [2] was “No adverse effects caused by the activation of V2R were observed”. Besides, the “glucose, triglyceride, ALT, and AST levels” value in data set [3] (22 days, in words) is recorded as “No significant differences”. Also, the ALT in data set [3] (setting [4]) came to 26 ± 2 U/L. The molecule also gave an AST in data set [3] (setting [4]) of 73 ± 8 U/L.

These data come from US20260337229A1 (Seattle Children's Hospital (d/b/a Seattle Children's …, priority 2022, published 2026).
